Columns and labels:
Cytochrome P450 1A2 = target: T1, Cytochrome P450 1A2 (Homo sapiens, UniProt P05177); experiment: Inhibition of human CYP1A2 by fluorescence method; assay type: ADME
T1 sequence (P05177 whole entry): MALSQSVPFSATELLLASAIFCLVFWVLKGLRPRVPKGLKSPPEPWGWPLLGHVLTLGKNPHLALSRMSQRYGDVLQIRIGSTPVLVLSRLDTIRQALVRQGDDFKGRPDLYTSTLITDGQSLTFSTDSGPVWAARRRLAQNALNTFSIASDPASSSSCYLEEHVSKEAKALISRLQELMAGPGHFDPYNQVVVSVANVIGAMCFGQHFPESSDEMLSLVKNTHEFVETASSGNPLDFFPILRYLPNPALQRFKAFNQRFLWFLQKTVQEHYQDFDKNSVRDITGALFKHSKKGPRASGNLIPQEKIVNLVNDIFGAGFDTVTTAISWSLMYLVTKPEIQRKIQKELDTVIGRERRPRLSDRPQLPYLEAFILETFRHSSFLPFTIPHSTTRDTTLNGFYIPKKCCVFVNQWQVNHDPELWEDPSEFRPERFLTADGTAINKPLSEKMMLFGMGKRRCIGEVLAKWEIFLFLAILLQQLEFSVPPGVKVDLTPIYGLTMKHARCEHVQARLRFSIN

Cytochrome P450 2B6 = target: T2, Cytochrome P450 2B6 (Homo sapiens, UniProt P20813); experiment: Inhibition of human CYP2B6 by fluorescence method; assay type: ADME
T2 sequence (P20813 whole entry): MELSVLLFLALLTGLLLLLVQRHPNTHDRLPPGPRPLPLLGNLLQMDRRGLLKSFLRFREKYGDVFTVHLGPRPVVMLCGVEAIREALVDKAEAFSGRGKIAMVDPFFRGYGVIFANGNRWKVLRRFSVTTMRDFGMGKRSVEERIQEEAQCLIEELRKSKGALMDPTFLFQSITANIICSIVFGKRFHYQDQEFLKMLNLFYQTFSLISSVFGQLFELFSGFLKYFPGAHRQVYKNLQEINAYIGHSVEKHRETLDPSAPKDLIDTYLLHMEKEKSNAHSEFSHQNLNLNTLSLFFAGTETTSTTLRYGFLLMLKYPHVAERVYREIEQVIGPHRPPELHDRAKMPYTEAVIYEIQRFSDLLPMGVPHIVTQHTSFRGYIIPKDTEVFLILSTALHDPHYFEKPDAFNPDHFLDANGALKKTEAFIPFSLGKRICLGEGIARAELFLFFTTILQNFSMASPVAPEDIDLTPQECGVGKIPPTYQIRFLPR

[1] = Efflux ratio of apparent permeability across basolateral to apical side over apical to basolateral side in human Caco2 cells at 10 uM after 15 to 90 mins by LC-ESI-MS/MS analysis; assay type: ADME, cell-based; details: Caco-2
[2] = Negative chronotropic activity in Wistar rat neonatal cardiomyocytes assessed as change in basal beating rate after 7 mins by inverted microscopic method; assay type: functional
Cytochrome P450 2C19 = Cytochrome P450 2C19 (Homo sapiens, UniProt P33261); experiment: Inhibition of human CYP2C19 by fluorescence method; assay type: ADME
Cytochrome P450 2J2 = target: T3, Cytochrome P450 2J2 (Homo sapiens, UniProt P51589); experiment: Inhibition of recombinant human CYP2J2 expressed in baculovirus infected insect cells co-expressing NADPH-CYP reductase and cytochrome b5 assessed as reduction in CYP2J2-mediated EPA epoxidation by measuring sum of EEQ and DiHETEs level at 1 to 50 uM using EPA as substrate preincubated for 5 mins followed by NADPH addition and measured after 15 mins by LCMS/MS analysis; assay type: ADME; details: recombinant enzyme, 0.25 h
T3 sequence (P51589 whole entry): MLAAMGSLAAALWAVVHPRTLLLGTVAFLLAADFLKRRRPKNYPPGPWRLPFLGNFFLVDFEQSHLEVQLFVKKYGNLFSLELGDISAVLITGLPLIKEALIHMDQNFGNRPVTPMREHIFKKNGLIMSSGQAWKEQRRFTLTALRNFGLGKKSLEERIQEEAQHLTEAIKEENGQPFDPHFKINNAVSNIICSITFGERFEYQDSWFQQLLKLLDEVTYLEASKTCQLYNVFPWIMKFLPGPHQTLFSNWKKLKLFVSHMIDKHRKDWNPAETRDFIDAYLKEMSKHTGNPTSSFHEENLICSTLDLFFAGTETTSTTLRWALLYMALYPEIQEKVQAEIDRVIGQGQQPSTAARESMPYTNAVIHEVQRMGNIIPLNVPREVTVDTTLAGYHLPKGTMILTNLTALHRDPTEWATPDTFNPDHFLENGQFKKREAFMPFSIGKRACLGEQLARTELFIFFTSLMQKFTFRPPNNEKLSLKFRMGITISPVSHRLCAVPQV

[3] = Elimination half life in Sprague-Dawley (RjHan:SD) rat at 3 mg/kg, po administered via gavage by LC-MS analysis; assay type: ADME, organism-based; details: in vivo, read-out: beta t1/2 (converted)
[4] = Oral bioavailability in Sprague-Dawley (RjHan:SD) rat at 3 mg/kg administered via gavage by LC-MS analysis; assay type: ADME, organism-based; details: in vivo
[5] = target: T4, Bifunctional epoxide hydrolase 2 (Homo sapiens) (UniProt P34913); details: Sf21, at 1 µM
T4 sequence (whole entry): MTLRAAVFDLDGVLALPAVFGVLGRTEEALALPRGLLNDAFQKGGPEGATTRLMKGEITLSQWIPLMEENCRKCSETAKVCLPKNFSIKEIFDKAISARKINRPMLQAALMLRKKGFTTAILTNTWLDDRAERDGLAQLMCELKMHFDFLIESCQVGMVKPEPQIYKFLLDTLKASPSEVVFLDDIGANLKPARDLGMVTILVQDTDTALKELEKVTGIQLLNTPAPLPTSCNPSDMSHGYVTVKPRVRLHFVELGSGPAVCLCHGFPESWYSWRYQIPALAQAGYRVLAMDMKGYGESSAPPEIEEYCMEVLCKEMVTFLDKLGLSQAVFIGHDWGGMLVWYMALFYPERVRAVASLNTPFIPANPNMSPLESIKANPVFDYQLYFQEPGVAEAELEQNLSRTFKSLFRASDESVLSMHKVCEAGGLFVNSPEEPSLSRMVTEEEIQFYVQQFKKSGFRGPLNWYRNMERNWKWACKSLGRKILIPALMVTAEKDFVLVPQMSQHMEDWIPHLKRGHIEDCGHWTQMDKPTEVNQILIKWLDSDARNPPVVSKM
Description: Inhibition of N-terminal His-tagged recombinant human soluble epoxide hydrolase (2 to 555 residues) expressed in Sf21 insect cells at 1 uM using as 14,15-EET as substrate after 10 mins by reversed-phase HPLC assay relative to control

Chain of Cytochrome P450 2C19 (P33261 whole entry): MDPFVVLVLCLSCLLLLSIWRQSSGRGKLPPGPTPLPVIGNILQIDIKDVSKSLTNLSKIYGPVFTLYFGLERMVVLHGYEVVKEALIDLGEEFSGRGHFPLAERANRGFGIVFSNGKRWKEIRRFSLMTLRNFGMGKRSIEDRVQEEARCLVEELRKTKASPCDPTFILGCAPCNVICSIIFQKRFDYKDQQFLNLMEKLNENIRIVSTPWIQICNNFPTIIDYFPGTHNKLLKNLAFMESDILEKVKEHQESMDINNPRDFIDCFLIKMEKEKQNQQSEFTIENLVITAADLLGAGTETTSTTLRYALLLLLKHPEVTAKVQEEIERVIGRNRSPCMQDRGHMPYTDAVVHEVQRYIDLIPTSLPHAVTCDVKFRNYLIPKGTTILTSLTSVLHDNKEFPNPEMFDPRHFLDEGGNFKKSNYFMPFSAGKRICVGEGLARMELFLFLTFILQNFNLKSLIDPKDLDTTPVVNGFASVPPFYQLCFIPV

| IC50 (Cytochrome P450 1A2) | IC50 (Cytochrome P450 2B6) | efflux ratio at 10 µM [1] | IC50 (Cytochrome P450 2C19) | inhibition (INH) (Cytochrome P450 2J2) | half-life [3] | bioavailability [4] | inhibition [5] | SMILES | Activity [2] |
| --- | --- | --- | --- | --- | --- | --- | --- | --- | --- |
| > 50 µM | > 50 µM | 0.8 | 0.21 µM | Active | 3.6 h | 35% | -1.3% | CNC(=O)C(=O)NCCCC/C=C\CCCCCCCCCc1nnn[nH]1 | -30.9 bpm |
| > 50 µM | > 50 µM | 0.4 | > 50 µM | Not Active |  |  | -4.1% | CNC(=O)C(=O)NCCCC/C=C\CCCCCCCCCC(=O)O |  |
| > 50 µM | > 50 µM | 0.6 | 46.2 µM | Not Active | 9.6 h | 100% | 0.8% | CNC(=O)C(=O)NCCCC/C=C\CCCCCCCOCC(=O)O | -33.6 bpm |

Reference: ChEMBL document CHEMBL4414645, “Development of Robust 17(R),18(S)-Epoxyeicosatetraenoic Acid (17,18-EEQ) Analogues as Potential Clinical Antiarrhythmic Agents” (J Med Chem, 2019)
